What was measured:
MiaPaCa-2 = test: Cell viability assay (resazurin) in MiaPaCa-2; format: cell-based; details: Homo sapiens, MIA PaCa-2; 96 hr exposure
Method: (§1) HepG2 (ATCC® HB-8065™), hepatocellular carcinoma, A549 (ATCC® CCL-185™), lung epithelial carcinoma, MCF7 (ATCC® HTB-22™), mammary gland epithelial carcinoma, MDA-MB-231 (ATCC® HTB-26™), TNBC, MiaPaCa-2 (ATCC® CRL-1420™) & Panc-1 (ATCC® CRL-1469™), pancreatic epithelial carcinoma, HCT116 (ATCC® CCL-247™), colon epithelial carcinoma and U87MG (ATCC® HTB-14™), brain epithelial carcinoma cell lines respectively were seeded in the respective medium (DMEM, Cat #10569044 with 10% FBS, Cat #16000044; Gibco for HepG2, A549, MCF7, MDA-MB-231, MiaPaCa-2, Panc-1, HCT116 and MEM, Cat #11095080 with 10% FBS for U87MG). Cells were allowed to grow at 37° C. for 24 hr in 5% CO2 (culture conditions) in a Nuaire incubator (humidified). Serially diluted compounds (100 μl) were added to the culture plate 24 hr later and the cultures were further incubated in culture conditions for 96 hr. […] Fluorescence was then measured using a multimodal plate reader (Biotek Synergy Neo) at an excitation wavelength of 535 nm and emission wavelength of 590 nm to obtain relative fluorescence units. Data analysis was done by subtracting the background fluorescence (only medium blank) value from each reading and then normalizing with the vehicle control (DMSO treated cells) to obtain percent survival/proliferation. […]

LXR beta = target: T1, LXR beta (Homo sapiens, UniProt P55055); test: LXR beta agonist assay (Lanthascreen TR-FRET); format: biochemical; details: LXR beta-LBD 5 nM, read-out: LXR-β EC50
T1 construct: 5 μL of 4×LXR beta-LBD was added to each well (final concentration 5 nM); purchased Thermofisher PV4658
T1 sequence (P55055 222-460 limits assumed): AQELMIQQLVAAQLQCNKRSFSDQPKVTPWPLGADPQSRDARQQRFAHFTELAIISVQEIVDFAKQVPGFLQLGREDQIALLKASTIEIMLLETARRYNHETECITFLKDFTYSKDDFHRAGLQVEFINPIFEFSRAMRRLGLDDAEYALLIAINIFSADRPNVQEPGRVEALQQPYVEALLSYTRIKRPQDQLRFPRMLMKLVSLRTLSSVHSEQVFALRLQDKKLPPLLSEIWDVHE
Outline: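 TR-FRET coactivator recruitment: 5 nM LXR beta-LBD with 100 nM Fl-D22 peptide and 10 nM Tb-anti-GST antibody (final) in Coregulator Buffer G, 60 min at 22° C, read hourly up to 4 hours. Duplicate three-fold titrations from 30 μM; EC50 by variable-slope nonlinear regression.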

MCF7 = test: Cell viability assay (resazurin) in MCF7; format: cell-based; details: Homo sapiens, 96 hr exposure
Method: HepG2 (ATCC® HB-8065™), hepatocellular carcinoma, A549 (ATCC® CCL-185™), lung epithelial carcinoma, MCF7 (ATCC® HTB-22™), mammary gland epithelial carcinoma, MDA-MB-231 (ATCC® HTB-26™), TNBC, MiaPaCa-2 (ATCC® CRL-1420™) & Panc-1 (ATCC® CRL-1469™), pancreatic epithelial carcinoma, HCT116 (ATCC® CCL-247™), colon epithelial carcinoma and U87MG (ATCC® HTB-14™), brain epithelial carcinoma cell lines respectively were seeded in the respective medium (DMEM, Cat #10569044 with 10% FBS, Cat #16000044; Gibco for HepG2, A549, MCF7, MDA-MB-231, MiaPaCa-2, Panc-1, HCT116 and MEM, Cat #11095080 with 10% FBS for U87MG). Cells were allowed to grow at 37° C. for 24 hr in 5% CO2 (culture conditions) in a Nuaire incubator (humidified). Serially diluted compounds (100 μl) were added to the culture plate 24 hr later and the cultures were further incubated in culture conditions for 96 hr. Experiment was terminated at the completion of 96 hr exposure to the drug by replacing the medium with 100 μl of 1 mM of resazurin (R7017; Sigma) prepared in culture medium and the plates were further incubated in culture conditions for 4 hr. Fluorescence was then measured using a multimodal plate reader (Biotek Synergy Neo) at an excitation wavelength of 535 nm and emission wavelength of 590 nm to obtain relative fluorescence units. Data analysis was done by subtracting the background fluorescence (only medium blank) value from each reading and then normalizing with the vehicle control (DMSO treated cells) to obtain percent survival/proliferation. Percent survival at different doses was used to calculate IC50 by fitting the curve to the “four-parameter variable slope logistic model” using Prism Graph Pad.

U87MG = test: Cell viability assay (resazurin) in U87MG; format: cell-based; details: Homo sapiens, U-87 MG; 96 hr exposure
Method: as §1

MDA-MB-231 = test: Cell viability assay (resazurin) in MDA-MB-231; format: cell-based; details: Homo sapiens, 96 hr exposure, read-out: MDA_MB-231 Cell IC50
Outline: (§2)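 Cells in 10% FBS medium (DMEM; MEM for U87MG) exposed 96 h at 37 °C to serially diluted compound, then 4 h with resazurin (1 mM in medium). Fluorescence (ex 535/em 590 nm) background-subtracted, normalised to DMSO; IC50 by four-parameter variable-slope fit.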

A549 = test: Cell viability assay (resazurin) in A549; format: cell-based; details: Homo sapiens, 96 hr exposure
Outline: as §2

HepG2 = test: Cell viability assay (resazurin) in HepG2; format: cell-based; details: Homo sapiens, 96 hr exposure
Outline: as §2

mouse splenocytes [1] = test: Mouse splenocytes cytotoxicity assay (CTG); format: cell-based; details: Splenocyte, CD3e/CD28 activated Balb/c splenocytes, 72 hr
Method: IC50 values to look at cytotoxicity of compounds on CD3e/CD28 induced splenocytes, was determined in mouse splenocytes isolated from Balb/c mice. Mouse splenocytes (2.5×10^5 cells/well/160 μl) were activated with Anti-mouse CD3e (0.5 μg/mL, coated overnight at 4° C.; Cat #14-0032-82, eBiosciences) and then incubated with serial dilutions of compounds (3 fold, 8 point dose response starting at 30 μM) and treated with Anti-mouse CD28 (1 μg/mL soluble; Cat #16-0289-81, eBiosciences). Splenocytes were further incubated under cell culture conditions for 72 hr after which assay was terminated by addition of CTG. Plate was incubated for 15 min at 37° C., 5% CO2 and luminescence was measured.

mouse splenocytes [2] = test: Mouse splenocyte assay, cytokine release (mIFN-γ ELISA); format: cell-based; details: Balb/c splenocytes, CD3e/CD28 and PMA+Ionomycin induced, read-out: Enhancement of mIFN-γ release by activated Mouse Splenocyte, EC50
Method: EC50 values of compounds for enhancement of CD3e/CD28 induced mIFNγ release in mouse splenocytes isolated from Balb/c mice and differentiated (Treg) with PMA+Ionomycin. Mouse splenocytes (2*10^5 cells/well) were activated with Anti-mouse CD3e (0.5 μg/mL, coated overnight at 4° C.; Cat #14-0032-82, eBioscience) and then incubated with Anti-mouse CD28 (1 μg/mL soluble; Cat #16-0289-81, eBiosciences). After 48 hr of incubation serial dilutions of compounds (3 fold, 8 point dose response starting at 1 μM) were left for 6-8 hrs at cell culture conditions and then splenocytes were further incubated with PMA (50 ng/mL final concentration) and 1 μg/mL of Ionomycin (final concentration) and incubated under cell culture conditions overnight after which the supernatant was harvested, diluted to 1:50 and ELISA was performed as per the manufacturer's protocol (mIFN-γ kit; Cat #555138 & 550534, BD Biosciences). Plates were read in Biotek plate reader by measuring absorbance at 450 nm.

SMILES	IC50 (MiaPaCa-2) [µM]	EC50 (LXR beta) [µM]	IC50 (MCF7) [µM]	IC50 (U87MG) [µM]	IC50 (MDA-MB-231) [µM]	IC50 (A549) [µM]	IC50 (HepG2) [µM]	IC50 (mouse splenocytes [1]) [µM]	EC50 (mouse splenocytes [2]) [µM]
CN(C)C(=O)c1ccc(NC2CN(C3CCN(C(=O)C(O)(c4ccccc4)C(F)(F)F)CC3)C2)cc1Cl (centres unmarked) [Compound 1.3, 2-chloro-N,N-dimethyl-4-(1-(1-(3,3,3-trifluoro-2-hydroxy-2-phenylpropanoyl)piperidin-4-yl)azetidin-3-ylamino)benzamide]	> 30	1.12	> 25.7	> 30	> 30	> 30	13.8		
CN(C)C(=O)c1ccc(N2CCN(C3CC4(C3)CN(C(=O)C(O)(c3ccccc3)C(F)(F)F)C4)CC2)cc1Cl (centres unmarked) [Compound 1.4, 2-chloro-N,N-dimethyl-4-(4-(2-(3,3,3-trifluoro-2-hydroxy-2-phenylpropanoyl)-2-azaspiro[3.3]heptan-6-yl)piperazin-1-yl)benzamide]	> 30	0.45	> 30	> 30	> 30	> 30	> 30		
O=c1[nH]ccc2cc(N3CCC(C4CCN(S(=O)(=O)c5ccccc5C(F)(F)F)CC4)CC3)cc(Cl)c12 [Compound 1.14, 8-chloro-6-(1′-(2-(trifluoromethyl)phenylsulfonyl)-4,4′-bipiperidin-1-yl)isoquinolin-1(2H)-one]		2.51						22.9	0.05
CC(C)(C(=O)N1CCC(N2CCN(c3cc(Cl)c4c(=O)[nH]ccc4c3)CC2)CC1)C(F)(F)F [Compound 1.21, 8-chloro-6-(4-(1-(3,3,3-trifluoro-2,2-dimethylpropanoyl)piperidin-4-yl)piperazin-1-yl)isoquinolin-1(2H)-one]								> 30	0.111
CC(C)(C(=O)N1CCC(C2CCN(c3cc(Cl)c4c(=O)[nH]ccc4c3)CC2)CC1)C(F)(F)F [Compound 1.23, 8-chloro-6-(1′-(3,3,3-trifluoro-2,2-dimethylpropanoyl)-4,4′-bipiperidin-1-yl)isoquinolin-1(2H)-one]								1.5	

Source: patent US20220363662A1, “COMPOUNDS AS LXR AGONISTS” (Integral Biosciences Privated Limited, priority 2021, published 2022)
